Data taken from patent publication US20110294778A1, “HEPATITIS C INHIBITOR COMPOUNDS” (priority 2009, published 2011).
Like-named read-outs stand apart in the source and are kept apart here.

Assays:
[1] = tested on: HCV genotype 1b (Con-1) subgenomic replicon with NS3 resistance mutation D168V in Huh-7 cells; assay: HCV replicon RNA replication assay (NS3 protease variants), genotype 1b D168V; type: cell-based; conditions: Hepatitis C virus
[2] = tested on: HCV genotype 1a (strain H77) subgenomic replicon with NS3 resistance mutation R155K in Huh-7 cells; assay: HCV replicon RNA replication assay (NS3 protease variants), genotype 1a R155K; type: cell-based; conditions: Hepatitis C virus
[3] = Huh-7, 72 h, read-out: D168V 1b EC50 (nM)
[4] = Huh-7, 72 h, read-out: R155K 1a EC50 (nM)

Compound	EC50 [1, 3] [nM]	EC50 [2, 4] [nM]	EC50 ([1]; Huh-7, read-out: D168V 1b Ec50 (nM)) [nM]	EC50 ([2]; Huh-7, read-out: R155K 1a Ec50 (nM)) [nM]
COc1ccc2c(O[C@@H]3C[C@H]4C(=O)N[C@]5(C(=O)NS(=O)(=O)C6CC6)C[C@H]5/C=C\CCCCC[C@H](NC(=O)c5ccn(C)n5)C(=O)N4C3)cc(OC(C)C)nc2c1C [Compound 1003, (2R,6S,12Z,13aS,14aR,16aS)-N-(cyclopropylsulfonyl)-2-{[7-methoxy-8-methyl-2-(propan-2-yloxy)quinolin-4-yl]oxy}-6-{[(1-methyl-1H-pyrazol-3-yl)carbonyl]amino}-5,16-dioxo-1,2,3,6,7,8,9,10,11,13a,14,15,16,16a-tetradecahydrocyclopropa[e]pyrrolo[1,2-a][1,4]diazacyclopentadecine-14a(5H)-carboxamide]	0.29	4.3		
COc1ccc2c(O[C@@H]3C[C@H]4C(=O)N[C@]5(C(=O)NS(=O)(=O)C6(C)CC6)C[C@H]5/C=C\CCCCC[C@H](NC(=O)N(C)C)C(=O)N4C3)cc(OC(C)C)nc2c1Br [Compound 2016, (2R,6S,12Z,13aS,14aR,16aS)-2-{[8-bromo-7-methoxy-2-(propan-2-yloxy)quinolin-4-yl]oxy}-6-[(dimethylcarbamoyl)amino]-N-[(1-methylcyclopropyl)sulfonyl]-5,16-dioxo-1,2,3,6,7,8,9,10,11,13a,14,15,16,16a-tetradecahydrocyclopropa[e]pyrrolo[1,2-a][1,4]diazacyclopentadecine-14a(5H)-carboxamide]	1	2		
CC(C)Oc1cc(O[C@@H]2C[C@H]3C(=O)N[C@]4(C(=O)NS(=O)(=O)C5(C)CC5)C[C@H]4/C=C\CCCCC[C@H](NC(=O)c4ccn(C)n4)C(=O)N3C2)c2ccc(F)c(F)c2n1 [Compound 1008, (2R,6S,12Z,13aS,14aR,16aS)-2-{[7,8-difluoro-2-(propan-2-yloxy)quinolin-4-yl]oxy}-N-[(1-methylcyclopropyl)sulfonyl]-6-{[(1-methyl-1H-pyrazol-3-yl)carbonyl]amino}-5,16-dioxo-1,2,3,6,7,8,9,10,11,13a,14,15,16,16a-tetradecahydrocyclopropa[e]pyrrolo[1,2-a][1,4]diazacyclopentadecine-14a(5H)-carboxamide]	0.35	2.9		
COc1ccc2c(O[C@@H]3C[C@H]4C(=O)N[C@]5(C(=O)NS(=O)(=O)C6(C)CC6)C[C@H]5/C=C\CCCCC[C@H](NC(=O)N5CC(C)(OC)C5)C(=O)N4C3)cc(OC(C)C)nc2c1C [Compound 2009, (2R,6S,12Z,13aS,14aR,16aS)-6-{[(3-methoxy-3-methylazetidin-1-yl)carbonyl]amino}-2-{[7-methoxy-8-methyl-2-(propan-2-yloxy)quinolin-4-yl]oxy}-N-[(1-methylcyclopropyl)sulfonyl]-5,16-dioxo-1,2,3,6,7,8,9,10,11,13a,14,15,16,16a-tetradecahydrocyclopropa[e]pyrrolo[1,2-a][1,4]diazacyclopentadecine-14a(5H)-carboxamide]	2.9	6.8		
CCOc1cc(O[C@@H]2C[C@H]3C(=O)N[C@]4(C(=O)NS(=O)(=O)C5(C)CC5)C[C@H]4/C=C\CCCCC[C@H](NC(=O)N(C)C)C(=O)N3C2)c2ccc(OC)c(Br)c2n1 [Compound 2019, (2R,6S,12Z,13aS,14aR,16aS)-2-[(8-bromo-2-ethoxy-7-methoxyquinolin-4-yl)oxy]-6-[(dimethylcarbamoyl)amino]-N-[(1-methylcyclopropyl)sulfonyl]-5,16-dioxo-1,2,3,6,7,8,9,10,11,13a,14,15,16,16a-tetradecahydrocyclopropa[e]pyrrolo[1,2-a][1,4]diazacyclopentadecine-14a(5H)-carboxamide]	1.4	5.2		
CC[C@@H]1C[C@]1(NC(=O)[C@@H]1C[C@@H]2CN1C(=O)[C@H](C(C)(C)C)NC(=O)OCC(C)(C)CCCCc1cccc3c1CN(C3)C(=O)O2)C(=O)NS(=O)(=O)C1CC1 [reference compound]			4400	1200
COc1ccc2c(O[C@@H]3C[C@H]4C(=O)N[C@]5(C(=O)NS(=O)(=O)C6(C)CC6)C[C@H]5/C=C\CCCCC[C@H](NC(=O)N(C)C)C(=O)N4C3)cc(OC3CC3)nc2c1C [Compound 2012, (2R,6S,12Z,13aS,14aR,16aS)-2-{[2-(cyclopropyloxy)-7-methoxy-8-methylquinolin-4-yl]oxy}-6-[(dimethylcarbamoyl)amino]-N-[(1-methylcyclopropyl)sulfonyl]-5,16-dioxo-1,2,3,6,7,8,9,10,11,13a,14,15,16,16a-tetradecahydrocyclopropa[e]pyrrolo[1,2-a][1,4]diazacyclopentadecine-14a(5H)-carboxamide]	1.8	9.9		
Cc1c(F)ccc2c(O[C@@H]3C[C@H]4C(=O)N[C@]5(C(=O)NS(=O)(=O)C6(C)CC6)C[C@H]5/C=C\CCCCC[C@H](NC(=O)N(C)C)C(=O)N4C3)cc(OC(C)C)nc12 [Compound 2018, (2R,6S,12Z,13aS,14aR,16aS)-6-[(dimethylcarbamoyl)amino]-2-{[7-fluoro-8-methyl-2-(propan-2-yloxy)quinolin-4-yl]oxy}-N-[(1-methylcyclopropyl)sulfonyl]-5,16-dioxo-1,2,3,6,7,8,9,10,11,13a,14,15,16,16a-tetradecahydrocyclopropa[e]pyrrolo[1,2-a][1,4]diazacyclopentadecine-14a(5H)-carboxamide]	1.2	5.7		
CCOc1cc(O[C@@H]2C[C@H]3C(=O)N[C@]4(C(=O)NS(=O)(=O)C5(C)CC5)C[C@H]4/C=C\CCCCC[C@H](NC(=O)N(C)C)C(=O)N3C2)c2ccc(OC)c(C)c2n1 [Compound 2006, (2R,6S,12Z,13aS,14aR,16aS)-6-[(dimethylcarbamoyl)amino]-2-[(2-ethoxy-7-methoxy-8-methylquinolin-4-yl)oxy]-N-[(1-methylcyclopropyl)sulfonyl]-5,16-dioxo-1,2,3,6,7,8,9,10,11,13a,14,15,16,16a-tetradecahydrocyclopropa[e]pyrrolo[1,2-a][1,4]diazacyclopentadecine-14a(5H)-carboxamide]	2.1	9.9		
CCOc1cc(O[C@@H]2C[C@H]3C(=O)N[C@]4(C(=O)NS(=O)(=O)C5CC5)C[C@H]4/C=C\CCCCC[C@H](NC(=O)c4ccn(C)n4)C(=O)N3C2)c2ccc(OC)c(Br)c2n1 [Compound 1017, (2R,6S,12Z,13aS,14aR,16aS)-2-[(8-bromo-2-ethoxy-7-methoxyquinolin-4-yl)oxy]-N-(cyclopropylsulfonyl)-6-{[(1-methyl-1H-pyrazol-3-yl)carbonyl]amino}-5,16-dioxo-1,2,3,6,7,8,9,10,11,13a,14,15,16,16a-tetradecahydrocyclopropa[e]pyrrolo[1,2-a][1,4]diazacyclopentadecine-14a(5H)-carboxamide]	1.1	9.5		
COc1ccc2c(O[C@@H]3C[C@H]4C(=O)N[C@]5(C(=O)NS(=O)(=O)C6CC6)C[C@H]5/C=C\CCCCC[C@H](NC(=O)c5ccno5)C(=O)N4C3)cc(OC(C)C)nc2c1C [Compound 1032, (2R,6S,12Z,13aS,14aR,16aS)-N-(cyclopropylsulfonyl)-2-{[7-methoxy-8-methyl-2-(propan-2-yloxy)quinolin-4-yl]oxy}-6-[(1,2-oxazol-5-ylcarbonyl)amino]-5,16-dioxo-1,2,3,6,7,8,9,10,11,13a,14,15,16,16a-tetradecahydrocyclopropa[e]pyrrolo[1,2-a][1,4]diazacyclopentadecine-14a(5H)-carboxamide]	0.58	7.8		
COc1ccc2c(O[C@@H]3C[C@H]4C(=O)N[C@]5(C(=O)NS(=O)(=O)C6(C)CC6)C[C@H]5/C=C\CCCCC[C@H](NC(=O)N5CCC5)C(=O)N4C3)cc(OCC(F)(F)F)nc2c1C [Compound 2017, (2R,6S,12Z,13aS,14aR,16aS)-6-[(azetidin-1-ylcarbonyl)amino]-2-{[7-methoxy-8-methyl-2-(2,2,2-trifluoroethoxy)quinolin-4-yl]oxy}-N-[(1-methylcyclopropyl)sulfonyl]-5,16-dioxo-1,2,3,6,7,8,9,10,11,13a,14,15,16,16a-tetradecahydrocyclopropa[e]pyrrolo[1,2-a][1,4]diazacyclopentadecine-14a(5H)-carboxamide]	1.1	6.3		
COc1c(Cl)ccc2c(O[C@@H]3C[C@H]4C(=O)N[C@]5(C(=O)NS(=O)(=O)C6(C)CC6)C[C@H]5/C=C\CCCCC[C@H](NC(=O)c5ccn(C)n5)C(=O)N4C3)cc(OC(C)C)nc12 [Compound 1010, (2R,6S,12Z,13aS,14aR,16aS)-2-{[7-chloro-8-methoxy-2-(propan-2-yloxy)quinolin-4-yl]oxy}-N-[(1-methylcyclopropyl)sulfonyl]-6-{[(1-methyl-1H-pyrazol-3-yl)carbonyl]amino}-5,16-dioxo-1,2,3,6,7,8,9,10,11,13a,14,15,16,16a-tetradecahydrocyclopropa[e]pyrrolo[1,2-a][1,4]diazacyclopentadecine-14a(5H)-carboxamide]	0.33	7		
COc1ccc2c(O[C@@H]3C[C@H]4C(=O)N[C@]5(C(=O)NS(=O)(=O)C6(C)CC6)C[C@H]5/C=C\CCCCC[C@H](NC(=O)c5ccn(C(C)C)n5)C(=O)N4C3)cc(OC(C)C)nc2c1C [Compound 1021, (2R,6S,12Z,13aS,14aR,16aS)-2-{[7-methoxy-8-methyl-2-(propan-2-yloxy)quinolin-4-yl]oxy}-N-[(1-methylcyclopropyl)sulfonyl]-5,16-dioxo-6-({[1-(propan-2-yl)-1H-pyrazol-3-yl]carbonyl}amino)-1,2,3,6,7,8,9,10,11,13a,14,15,16,16a-tetradecahydrocyclopropa[e]pyrrolo[1,2-a][1,4]diazacyclopentadecine-14a(5H)-carboxamide]	0.24	4.3		
